Assay results reported in patent publication US11780815B2, “DNA2 inhibitors for cancer treatment” (City of Hope, priority 2016, dated 2023).
Where two headings read alike, the source gives them in different places.

What was measured:
[1] = test system: drug-sensitive yeast strains (rad27 mutants, wild-type); experiment: Yeast dilution assay, survival after MMS or high temperature; conditions: rad27 mutants lacking FEN1, serial 10 fold dilutions
MCF7 cells = experiment: Cell survival of control (shSCR) or DNA2 knockdown MCF7 cells; format: cell-based, human; conditions: 1 μM C5 for 4 days
From the text: . […] The live cells were counted.

FANCD2−/− fibroblasts = experiment: Cisplatin sensitivity of FANCD2−/− cells; conditions: 125 nM cisplatin, 10 μM C5, compared to cells not treated with C5
MCF7 breast cancer cells = experiment: Clonogenic assay, combination with CPT or MK4827; format: cell-based, human; conditions: for IC50: Homo sapiens, MCF7
Method: The survival rate of the cells treated with various concentrations of CPT was calculated by normalizing the number of colonies to that of the cells without CPT treatment. The survival rate of the cells without CPT treatment was arbitrarily set as 1. […] The IC50 and combination index (CI) was calculated using the Compusyn program. FIG. 7B: Representative inhibition curve of varying concentrations of C5 from 0 to 10 μM in combination with MK4827 (0 or 1 μM).
To test our hypothesis that inhibition of DNA2 synergizes with other chemotherapeutic agents, we treated cells with CPT and C5.

[2] = test system: BRCA2- or BOD1L-depleted or mock transfected U2OS cells; experiment: P-RPA foci in fork protection defective cells after HU; format: cell-based, human
From the text: Fork protection is a DNA break repair-independent pathway suppressing genomic instability (Schlacher et al, 2011; Schlacher et al, 2012). The fork protection pathway is mediated by BRCA2, BRCA1, RAD51, members of the Fanconi anemia pathway, and […]. In the absence of any of these factors, excessive nascent DNA degradation occurs at stalled replication forks. This degradation is prevented if the end-resection protein MRE11 is inhibited either by siRNA knockdown or by inhibition of MRE11 nuclease by the small molecule mirin (Schlacher et al., 2011; Schlacher et al., 2012). MRE11 functions upstream of DNA2 in resection of double-strand breaks, and DNA2, in addition to MRE11 has been implicated in over-resection at stalled replication forks in BOD1L and in RAD51 impaired cells, since over-resection is suppressed by knockdown of DNA2 in the absence of BOD1L or in a RAD51 mutant cell line (Higgs et al., 2015; Wang et al., 2015). […] . After treatment of the BRCA2- or BOD1L-depleted U2OS cells with HU, which stalls forks but is not expected to produce DSBs (Petermann et al., 2010; Schlacher et al., 2011; Schlacher et al., 2012), and which are fork protection defective, we observed a dramatic increase in P-RPA positive cells indicative of nascent DNA degradation upon treatment with HU (FIGS. 6C and FIG. 12B). […] . The potency of C5 was estimated by comparing the effect of mirin, the MRE11 inhibitor, in the same experiment. […] . Our results are in keeping with previous work showing that knockdown of DNA2 counteracts excessive nascent strand degradation in both BOD1L and in RAD51 impaired cells (Higgs et al., 2015; Wang et al., 2015). […] .

[3] = test system: panel of 18 cell lines of 4 major types of cancers; experiment: Cell proliferation assay, panel of cancer cell lines
[4] = test system: HCT116 DNA2 flox/+/+ cells; experiment: Synthetic lethality of C5 with FEN1, EXO1 or MRE11 siRNA knockdown; format: cell-based, human
Method: FIGS. 13A-13C. Synergy between C5 and FEN1. […] . On day 1, HCT116 DNA2^flox/+/+ and HCT116 DNA2^flox/−/− cells (3*10^6 were plated in 10 cm dishes, respectively. On day 2, the genetic knockout of DNA2 was induced with tamoxifen as previously described (Karanja et al., 2014). Control wells contained EtOH. On day 3, the tamoxifen floxed cells, now DNA2^−/+/+ and DNA2^−/−/−, and DNA2^flox/+/+ controls were plated on 24 well plates, 20,000 to 30,000 cells per well, and incubated overnight. On day 4, wells were transfected with 20 pmole control SCR siRNA or FEN1 (FIG. 13A), EXO1 (FIG. 13B), or MRE11 (FIG. 13C) si RNAs, respectively, as previously described using GeneMute. siRNAs were obtained from Invitrogen: FEN1 (HSS103627, HSS103629, HSS176903), MRE11 (HSS142960, HSS142961, HSS181171), EXO1 (HSS113557, HSS113558, HSS113559). Cells were incubated overnight. […] . Cells were cultured for an additional 3 days, until DNA2 ^flox/+/+ cells lacking C5 were confluent. As a control for the efficacy of C5, the effect of genetic knockdown of DNA2 was tested in the presence the respective siRNA treated DNA2^−/−/− (gray curves). Cells were then washed with PBS, trypsinized and stained with tryphan blue to differentiate live cells from dead cells. Cells were counted microscopically in a Neubauer chamber. Error bars represent data from duplicate experiments. […] .
In yeast, pathways mediated by DNA2 overlap with repair or replication by FEN1, EXO1, or MRE11 and not with others (Budd, M. E., Tong, A. H., Polaczek, P., Peng, X., Boone, C., and Campbell, J. L. (2005). A network of multi-tasking proteins at the DNA replication fork preserves genome stability. PLoS genetics 1, e61). Thus, mutants defective in FEN1, EXO1, or MRE11 are viable only in the presence of active DNA2. Double mutants deficient in DNA2 and FEN1, EXO1, or MRE11, respectively, are inviable, especially in the presence of DNA damage. This effect is called synthetic lethality. To test for synthetic lethality, deficiency in DNA2, can be induced either by genetic mutation or, if a specific inhibitor is available, by inhibition of DNA2. We reasoned that if DNA2 is the major cellular target of C5, then cells deficient in FEN1, EXO1, or MRE11 should be hypersensitive to C5, i.e. C5 should synergize with deficiency in any one of these three genes. We have now shown that this is the case in both yeast and in human cells (FIGS. 13A-13C, human cells and FIG. 14, yeast cells). […] . […] After floxing, i.e. induction of Cre nuclease with tamoxifen, this strain becomes a complete DNA2 knockout. […] .

[5] = test system: U2OS cells carrying the GFP reporter gene; experiment: DSB repair reporter assays (I-SceI/GFP, HDR and SSA); format: cell-based, human
From the text: To further validate C5 as a DNA2 inhibitor, we tested its effects on DNA2 functions known to be affected by knockdown or deletion of DNA2 in previous studies (Howard et al., 2015; Karanja et al., 2014; Karanja et al., 2012; Peng et al., 2012). We first determined the effect of C5 on two recombination pathways, SSA (single-strand annealing) and homologous recombination (HR), using I-SceI/GFP-based reporter assays. […] . HDR-GFP and SSA-GFP were integrated in U2OS cells (Gunn and Stark, 2012; Howard et al., 2015). […] . The cells were harvested and the GFP+ frequencies (repair frequencies) were determined by flow cytometry using a CyAn ADP Analyzer (Beckman Coulter, Inc.).

A549 cells = experiment: DNA fiber assay, replication fork restart; conditions: for percentage of restarting forks: 20 μM C5
[6] = test system: mouse embryonic stem (MES) cells; experiment: Cell survival of WT and DNA2 knockout MES cells; format: cell-based; conditions: 1 μM C5 for 4 days
[7] = test system: phosphorylated RPA2 and γH2AX in MCF7 and A549 cells; experiment: Phosphorylated RPA and γH2AX after CPT (western blot, immunofluorescence)
FEN1 = FEN1 (Homo sapiens, UniProt P39748); conditions: Liu et al EBioMedicine 6 (2016) 73-86; cited from earlier work
Sequence of FEN1 (P39748 whole entry, species assumed): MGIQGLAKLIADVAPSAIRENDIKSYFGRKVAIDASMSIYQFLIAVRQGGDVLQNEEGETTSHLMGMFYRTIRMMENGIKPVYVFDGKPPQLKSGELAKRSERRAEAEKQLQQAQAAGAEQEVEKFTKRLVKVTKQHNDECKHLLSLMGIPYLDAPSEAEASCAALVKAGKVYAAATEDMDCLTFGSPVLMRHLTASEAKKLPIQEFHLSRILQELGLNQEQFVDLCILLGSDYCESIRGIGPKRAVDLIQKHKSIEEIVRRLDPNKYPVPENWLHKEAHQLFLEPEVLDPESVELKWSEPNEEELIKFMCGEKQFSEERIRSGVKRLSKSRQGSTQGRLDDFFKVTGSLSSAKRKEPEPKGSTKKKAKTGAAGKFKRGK

CCCCNC(=O)c1c[nH]c2c([N+](=O)[O-])cccc2c1=O [C5-2]
sensitisation of rad27 yeast to DNA damage [1]: more effective than C5

O=C(O)c1cnc2c([N+](=O)[O-])cccc2c1O [C5]
effect on survival rate (MCF7 cells; DNA2 knockdown human cancer cells): did not further reduce the survival rate | survival rate compared to the untreated WT control (MCF7 cells; human cancer cells (printed MEF7)): 60% | survival of cisplatin-treated cells (FANCD2−/− fibroblasts): increase in survival | combination with MK4827, survival of MCF7 cells (MCF7 breast cancer cells; C5 0 to 10 μM, MK4827 0 to 1 μM): strong synergistic effect | combination with CPT, cellular lethality (MCF7 breast cancer cells; C5 1 μM with different concentrations of CPT): synergistic | IC50 (MCF7 breast cancer cells): 1.9 µM | combination index (MCF7 breast cancer cells; MK4827 (1 μM) and C5 (2 μM), Compusyn): 0.13 | nascent DNA degradation (P-RPA positive cells) ([2]; BRCA2- or BOD1L-depleted U2OS cells, 4 mM HU 5 h, 20 μM C5): suppressed | potency in reducing nascent DNA degradation relative to mirin ([2]; BRCA2- or BOD1L-depleted U2OS cells, HU, 20 μM C5): comparable potency to 50 μM mirin | reduction in P-RPA foci ([2]; BRCA2-deficient cells, 4 mM HU 5 h): equivalent to that observed in a DNA2 knockdown | number of P-RPA positive cells ([2]; mock-depleted cells, absence of HU): neither mirin nor C5 significantly decreased | cytotoxicity to human cancer cells among the nuclease-inhibiting hits [3]: highest cytotoxicity | cell killing by increasing levels of C5 ([4]; scrambled siRNA): resistant | cell killing by increasing levels of C5 ([4]; siRNA knockdown of EXO1): killed by increasing levels of C5 | cell killing by increasing levels of C5 ([4]; siRNA knockdown of FEN1): killed by increasing levels of C5 | cell killing by increasing levels of C5 ([4]; siRNA knockdown of MRE11): killed by increasing levels of C5 | HR (homologous recombination) frequency ([5]; 0, 10, 20, 40, 60 μM C5, 72 h): reduced by C5 in a dose-dependent manner | SSA (single-strand annealing) frequency ([5]; 0, 10, 20, 40, 60 μM C5, 72 h): reduced by C5 in a dose-dependent manner | HR frequency compared with siRNA DNA2 knockdown ([5]; 60 μM C5): reduced to the same level as in an siRNA DNA2 knockdown | SSA frequency compared with siRNA DNA2 knockdown ([5]; 60 μM C5): reduced to the same level as in an siRNA DNA2 knockdown | percentage of restarting forks (A549 cells; CPT-treated cells (150 nM CPT), 75% in absence of C5): 50% | percentage of restarting forks (A549 cells; HU-treated cells (2 mM HU), 80% in absence of C5): 60% | replication fork restart (A549 cells; high levels of CPT (2 μM), 10 μM C5): inhibited restart | effect on survival rate [6]: did not further reduce the survival rate | CPT-induced P-RPA level in γH2AX-positive cells ([7]; 10 μM C5 for 24 hours, then 1 μM CPT for 4 hours): significantly reduced | γH2AX level ([7]; C5 alone, 10 μM): background increase | inhibition of FEN1 (FEN1): not inhibited | sensitisation of rad27 yeast to DNA damage [1]: synergizes with MMS and with deletion of rad27

NC(=O)c1cccc2cn(-c3ccc([C@@H]4CCCNC4)cc3)nc12 [MK4827, 2-{4-[(3S)-piperidin-3-yl]phenyl}-2H-indazole-7-carboxamide, reference compound]
IC50 (MCF7 breast cancer cells; clonogenic assay, single agent, read-out: IC50): 0.8 µM
